In experiment [1] the target is CDK1/cyclin B (Homo sapiens (Human), UniProt P06493). In words: CDK1/cyclin B enzymatic activity assay (IMAP-FP). It is filed as biochemical. To be noted: 100 nM Tamra Histone-H1 peptide, 20 μM ATP, 120 min at room temperature, read-out: Biochemical CDK1 enzyme IC50. From the text:
CDK1/Cyclin B Enzymatic Activity Assay
A 384-well microtiter IMAP-FP™ (Molecular Devices Trade Mark Technology) endpoint assay was used for CDK1/cyclin B kinase activity measurements. The same assay was used for IC50 determination of small molecule inhibitors.

The target of experiment [2] is CDK4/cyclin D1 (Homo sapiens (Human), UniProt P11802). Description: CDK4/cyclin D1 enzymatic activity assay (TR-FRET, phosphorylation of pRb at Ser780). It is filed as biochemical. As to conditions: 0.3 nM CDK4/cyclin D1, 150 nM biotin-pRb (773-924), 3 μM ATP, 60 min at 22° C.; read-out: Biochemical CDK4 enzyme IC50. The protocol:
CDK4/Cyclin D1 Enzymatic Activity Assay
An assay for monitoring CDK4/cyclin D1-catalyzed phosphorylation of pRb at the Ser780 site was performed using TR-FRET in a 384-well format, and was used for IC50 determination and kinetic analysis. […] 3 μM ATP was added last to initiate the reaction. The reaction was quenched with 10 μL of 240 mM EDTA-Na (pH 8.0) after 60 min incubation at 22° C.
Human CDK4/cyclin D1 was expressed in Sf21 cells via baculovirus infection.
(In general: Time-resolved FRET reads energy transfer from a long-lived donor to a nearby acceptor.)

Experiment [3] concerns phosphorylation of pRb at the Ser780 site in JeKo-1 mantle cell lymphoma cells. In words: CDK4 cellular assay: ELISA of pRb phosphorylation at Ser780 in JeKo-1 cells. It is filed as cell-based. From the text:
Cell-based assay measuring phosphorylation levels of pRb at the Ser780 site using an enzyme-linked immunosorbent assay (ELISA) method (Table 6). JeKo-1, a mantle-cell lymphoma cell line, was selected for use in this assay due to its known translocation and subsequent overexpression of cyclin D1. [Ref: Amin, H. M.; McDonnell, T. J.; Medeiros, L. J.; Rassidakis, G. Z.; Leventaki, V.; O'Connor, S. L.; Keating, M. J.; Lai, R. Characterization of 4 mantle cell lymphoma cell lines—Establishment of an in vitro study model. Arch. Pathol. Lab.
Cells were allowed to adhere overnight. […] 10 μL of the dilution were then transferred to the cell culture plate, resulting in a final concentration range of 10 μM to 2 nM. The incubation was carried out at 37° C. with 5% CO2. All compounds were tested in triplicates at each concentration. […] The plates were placed at 4° C. with vigorous shaking for 5 min to lyse the cells. The resulting lysates contained approximately 1 μg/μL of protein.
Plates were incubated overnight at 4° C. with rocking. […] After shaking for 10 minutes, the Superblock solution was replaced with fresh Superblock and plates were incubated on a shaker for an additional 50 min. After blocking, 30 μL of JeKo-1 cell lysate, containing approximately 10 μg total protein, were added to wells in triplicate. […] For all incubation steps, plates were covered with Uniseal plate sealers. […] Next, 50 μL of a 1:2500 dilution of donkey-anti-rabbit HRP (Promega catalog no. W401B) in PBS/10% Superblock were added, and plates were incubated for 30 min at room temperature on a shaker. Plates were again washed as described above. […] After incubation, 50 μL 2 M sulfuric acid were added to plates to top the reaction, and absorbance was determined on a SpectraMax (Molecular Devices, Sunnydale, Calif.) within 15 minutes at 450 nm. All washes were performed using a Bio-Tek plate washer.
The Total Rb ELISA kit (Invitrogen catalog no. KH00011) was used to determine the levels of total pRb. This kit uses wells precoated with a proprietary total pRb antibody for capture. All reagents listed, with the exception of cell lysate, were included in the kit. The nature of the antibodies used for capture and detection was labeled as proprietary and not disclosed. 10 μg of cell lysate was loaded into the wells and volume adjusted to 50 μL with standard dilution buffer. Plates were sealed with film included in the kit and incubated for 2 h at room temperature on a shaker. Plates are then manually washed three times with 250 μL wash buffer. 50 μL of proprietary primary antibody (pre-conjugated to biotin) was added to wells and incubated for 1 h at room temperature on a shaker. Then plates were again washed as noted above. The secondary antibody (HRP pre-conjugated to Streptavidin) was diluted 1:100 in Streptavidin-HRP diluent buffer and 50 μL was added to each well. Plates were then incubated for 30 min. Afterwards, plates were washed four times with buffer as outlined above. Finally, 50 μL stabilized Chromogen was added per well and plates were incubated for 15 min, at which point 50 μL of stop solution was added. Plates were then read on a Spectramax at 450 nm.
The total pRb levels were then used to adjust the p-pRb % inhibition values to account for any loss of signal due to the absence of the pRb protein itself, and the IC50 values obtained from the adjusted % inhibitions represent normalized cellular p-pRb IC50.
(In an ELISA, binding on a coated surface is turned into a signal by an enzyme label.)

Setting [4] is: Homo sapiens, JeKo-1 cells, p-pRb % inhibition adjusted with total pRb levels, read-out: Normalized cellular ppRb inhibition IC50.
[5] abbreviates: Homo sapiens, JeKo-1 cells, p-pRb Ser780 ELISA, non-normalized, read-out: Cellular ppRb inhibition IC50.
[6] abbreviates: Homo sapiens, JeKo-1, JeKo-1 cells, p-pRb % inhibition adjusted with total pRb levels, read-out: Normalized cellular ppRb inhibition IC50.
The mark [7] stands for this setting: Homo sapiens, JeKo-1, JeKo-1 cells, p-pRb Ser780 ELISA, non-normalized, read-out: Cellular ppRb inhibition IC50.

pIC50: −log10 of the molar value. Like-named read-outs stand apart in the source and are kept apart here. A value given as a limit tells only on which side of the number the result lay.

Sequence of CDK1/cyclin B (P06493 whole entry, species assumed): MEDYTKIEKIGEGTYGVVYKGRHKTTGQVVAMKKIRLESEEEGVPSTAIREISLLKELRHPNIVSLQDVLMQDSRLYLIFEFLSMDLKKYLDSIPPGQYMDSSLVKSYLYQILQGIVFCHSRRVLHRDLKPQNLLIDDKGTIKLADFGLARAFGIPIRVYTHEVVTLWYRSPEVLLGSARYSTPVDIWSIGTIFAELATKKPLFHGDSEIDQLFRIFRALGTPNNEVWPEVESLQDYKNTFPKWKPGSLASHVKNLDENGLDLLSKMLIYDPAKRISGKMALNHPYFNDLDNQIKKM
Sequence of CDK1/cyclin B (P14635 whole entry partner, species assumed): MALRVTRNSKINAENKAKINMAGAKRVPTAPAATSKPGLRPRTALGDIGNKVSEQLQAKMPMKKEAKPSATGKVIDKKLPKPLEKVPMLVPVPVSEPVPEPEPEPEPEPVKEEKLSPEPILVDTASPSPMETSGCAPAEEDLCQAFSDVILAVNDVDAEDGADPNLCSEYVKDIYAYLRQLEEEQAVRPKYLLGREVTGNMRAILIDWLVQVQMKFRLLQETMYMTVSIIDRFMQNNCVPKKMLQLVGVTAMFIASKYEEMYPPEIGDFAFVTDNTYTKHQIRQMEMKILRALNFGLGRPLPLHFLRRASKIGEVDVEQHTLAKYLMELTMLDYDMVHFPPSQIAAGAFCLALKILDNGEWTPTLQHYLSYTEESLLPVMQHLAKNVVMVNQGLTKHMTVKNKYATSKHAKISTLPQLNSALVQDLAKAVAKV
Sequence of CDK4/cyclin D1 (P11802 whole entry): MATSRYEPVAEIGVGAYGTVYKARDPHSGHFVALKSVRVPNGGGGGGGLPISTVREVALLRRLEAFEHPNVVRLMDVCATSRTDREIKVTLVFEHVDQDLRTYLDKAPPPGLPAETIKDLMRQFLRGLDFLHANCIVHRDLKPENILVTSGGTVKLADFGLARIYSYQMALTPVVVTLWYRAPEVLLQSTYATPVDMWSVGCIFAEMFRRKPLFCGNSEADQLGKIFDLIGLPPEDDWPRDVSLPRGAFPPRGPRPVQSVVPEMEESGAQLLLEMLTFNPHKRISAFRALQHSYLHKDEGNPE
Sequence of CDK4/cyclin D1 (P24385 whole entry partner): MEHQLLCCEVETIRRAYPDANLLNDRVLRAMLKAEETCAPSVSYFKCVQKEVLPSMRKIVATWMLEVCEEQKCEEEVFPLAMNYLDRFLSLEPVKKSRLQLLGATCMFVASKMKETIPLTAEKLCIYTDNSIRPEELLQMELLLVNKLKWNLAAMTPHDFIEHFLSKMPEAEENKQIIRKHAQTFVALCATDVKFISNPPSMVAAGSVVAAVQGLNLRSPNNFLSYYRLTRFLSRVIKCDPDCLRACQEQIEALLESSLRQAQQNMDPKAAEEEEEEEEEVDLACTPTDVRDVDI

For orientation: pIC50 means the negative decadic logarithm of the IC50, by convention in mol/L. Consider `CN(C)C(=O)c1cc2cnc(Nc3ccc(C(=O)N4CC5CCC(C4)N5)cn3)nc2n1C1CCCOC1` (stereo not drawn) [Example 65, 2-(5-(3,8-diazabicyclo[3.2.1]octane-3-carbonyl)pyridin-2-ylamino)-N,N-dimethyl-7-(tetrahydro-2H-pyran-3-yl)-7H-pyrrolo[2,3-d]pyrimidine-6-carboxamide], for which the pIC50 in experiment [1] ([…] CDK1/cyclin B) is < 4.82; in experiment [2], 7.12; in experiment [3] (setting [4]) it was 6.34 to 6.88; in experiment [3] (setting [5]), 6.68 to 6.90.
In the case of `CN(C)C(=O)c1cc2cnc(Nc3ccc(N4C[C@@H]5CNC[C@@H]5C4=O)cn3)nc2n1C1CCCC1` [Example 85, 7-cyclopentyl-N,N-dimethyl-2-(5-((3aS,6aR)-1-oxohexahydropyrrolo[3,4-c]pyrrol-2(1H)-yl)pyridin-2-ylamino)-7H-pyrrolo[2,3-d]pyrimidine-6-carboxamide], the pIC50 in experiment [1] (0.25 nM CDK1/cyclin B) is 4.95 to 5.05; in experiment [2], 8.15 to 8.30; in experiment [3] (setting [6]), 7.68 to 8.05; in experiment [3] (setting [7]), 7.77 to 8.30.
Take `CN(C)C(=O)c1cc2cnc(Nc3ccc(N4C[C@@H]5CC[C@H](CC4=O)N5)cn3)nc2n1C1CCCC1` [Example 124, 7-Cyclopentyl-2-[5-((1S,6R)-4-oxo-3,9-diaza-bicyclo[4.2.1]non-3-yl)-pyridin-2-ylamino]-7H-pyrrolo[2,3-d]pyrimidine-6-carboxylic acid dimethylamide]: the pIC50 was < 4.82 in experiment [1] ([…] CDK1/cyclin B); 7.64 in experiment [2]; 6.58 in experiment [3] (JeKo-1 cells, p-pRb % inhibition adjusted with total pRb levels, read-out: Normalized cellular ppRb inhibition IC50); 6.80 in experiment [3] (JeKo-1 cells, p-pRb Ser780 ELISA, non-normalized, read-out: Cellular ppRb inhibition IC50).
As for `CN(C)C(=O)c1cc2cnc(Nc3ccc(N4CCCC5(CCNCC5)C4=O)cn3)nc2n1C1CCCC1` [Example 114, 7-Cyclopentyl-2-[5-(1-oxo-2,9-diaza-spiro[5,5]undec-2-yl)-pyridin-2-ylamino]-7H-pyrrolo[2,3-d]pyrimidine-6-carboxylic acid dimethylamide], the pIC50 in experiment [1] (0.25 nM CDK1/cyclin B) is < 4.82; in experiment [2] it was 6.72; in experiment [3] (Homo sapiens, JeKo-1, read-out: Cellular ppRb inhibition IC50), 5.87; in experiment [3] (Homo sapiens, JeKo-1, read-out: Normalized cellular ppRb inhibition IC50) it was 5.15.
`CN(C)C(=O)c1cc2cnc(Nc3ccc(N4CCC5(CCCN5)C4=O)cn3)nc2n1C1CCCOC1` (stereo not drawn) [Example 121, N,N-dimethyl-2-(5-(6-oxo-1,7-diazaspiro[4.4]nonan-7-yl)pyridin-2-ylamino)-7-(tetrahydro-2H-pyran-3-yl)-7H-pyrrolo[2,3-d]pyrimidine-6-carboxamide]: the pIC50 in experiment [1] ([…] CDK1/cyclin B) is < 4.82; in experiment [2] it was 6.97 to 7.10; in experiment [3] (setting [4]) it was 6.10 to 6.70; in experiment [3] (setting [5]), 6.31 to 6.74.
Take `CN1CCCC2(CC1)CN(c1ccc(Nc3ncc4cc(C(=O)N(C)C)n(C5CCCC5)c4n3)nc1)C(=O)O2` (stereo not drawn) [Example 104, 7-Cyclopentyl-2-[5-(8-methyl-2-oxo-1-oxa-3,8-diaza-spiro[4.6]undec-3-yl)-pyridin-2-ylamino]-7H-pyrrolo[2,3-d]pyrimidine-6-carboxylic acid dimethylamide]: the pIC50 in experiment [1] ([…] CDK1/cyclin B) was < 4.82; in experiment [2] it was 7.70; in experiment [3] (setting [4]), 7.19; in experiment [3] (setting [5]), 7.54.
On the same counts, the results for `CN(C)C(=O)c1cc2cnc(Nc3ccc(C(=O)N4C[C@H]5CNC[C@@H](C4)C5O)cn3)nc2n1C1CCCC1` (stereo partly drawn) [Example 1, 7-Cyclopentyl-2-(5-((1R,5S)-9-hydroxy-3,7-diazabicyclo[3.3.1]nonane-3-carbonyl)pyridin-2-ylamino)-N,N-dimethyl-7H-pyrrolo[2,3-d]pyrimidine-6-carboxamide] are < 4.82, 7.77, 6.27 and 6.44.
`CN(C)C(=O)c1cc2cnc(Nc3ccc(C(=O)N4CC5CC4CN5)cn3)nc2n1C1CCCCCC1` (stereo not drawn) [Example 3, 7-Cycloheptyl-2-[5-(2,5-diaza-bicyclo[2.2.1]heptane-2-carbonyl)-pyridin-2-ylamino]-7H-pyrrolo[2,3-d]pyrimidine-6-carboxylic acid dimethylamide]: the pIC50 in experiment [1] (0.25 nM CDK1/cyclin B) is 5.29 to 5.38; in experiment [2] it was 9.00; in experiment [3] (setting [4]) it was 7.48 to 7.54; in experiment [3] (setting [5]) it was 7.59 to 7.72.
Regarding `CN(C)C(=O)c1cc2cnc(Nc3ccc(N4C[C@@H]5CNC[C@@H]5CC4=O)cn3)nc2n1C1CCCCCC1` (stereo in doubt) [Example 89, 7-cycloheptyl-N,N-dimethyl-2-(5-(cis-6-oxotetrahydro-1H-pyrrolo[3,4-c]pyridin-5(6H,7H,7aH)-yl)pyridin-2-ylamino)-7H-pyrrolo[2,3-d]pyrimidine-6-carboxamide], the pIC50 was 5.19 in experiment [1] ([…] CDK1/cyclin B), 8.52 in experiment [2], 7.82 to 8.40 in experiment [3] (setting [6]) and 8.15 to 8.30 in experiment [3] (setting [7]).
Regarding `CN(C)C(=O)c1cc2cnc(Nc3ccc(N4C[C@H]5CNC[C@H]5CC4=O)cn3)nc2n1C1CCCCCC1` (stereo in doubt) [Example 88, 7-cycloheptyl-N,N-dimethyl-2-(5-(cis-6-oxotetrahydro-1H-pyrrolo[3,4-c]pyridin-5(6H, 7H, 7a H)-yl)pyridin-2-ylamino)-7H-pyrrolo[2,3-d]pyrimidine-6-carboxamide], the pIC50 in experiment [1] ([…] CDK1/cyclin B) was 5.60; in experiment [2], 8.30; in experiment [3] (setting [6]), 7.96; in experiment [3] (setting [7]), 8.15.
For the compound `CN(C)C(=O)c1cc2cnc(Nc3ccc(N4CCN5CCCCC5C4=O)cn3)nc2n1C1CCCCC1` (stereo not drawn) [Example 100, 7-Cyclohexyl-2-[5-(1-oxo-octahydro-pyrido[1,2-a]pyrazin-2-yl)-pyridin-2-ylamino]-7H-pyrrolo[2,3-d]pyrimidine-6-carboxylic acid dimethylamide], the pIC50 in experiment [1] ([…] CDK1/cyclin B) is < 4.82; in experiment [2], 7.46; in experiment [3] (setting [4]) it was 6.66; in experiment [3] (setting [5]), 6.73.
Turning to `CN(C)C(=O)c1cc2cnc(Nc3ccc(C(=O)N4CC5CCC(C4)O5)cn3)nc2n1C1CCCC1` [Example 74, 7-Cyclopentyl-2-[5-(8-oxa-3-aza-bicyclo[3.2.1]octane-3-carbonyl)-pyridin-2-ylamino]-7H-pyrrolo[2,3-d]pyrimidine-6-carboxylic acid dimethylamide], the pIC50 was < 4.82 in experiment [1] (0.25 nM CDK1/cyclin B), 7.17 in experiment [2], 6.59 in experiment [3] (setting [6]) and 6.82 in experiment [3] (setting [7]).

(Values after US8957074B2 (Novartis AG, priority 2010, dated 2015).)
